Key:
in vitro = conditions: human
Procedure: (§1) A fixed number (7×10^4 cells/dish) of HaCaT cells (human skin keratinocytes) were seeded in each well of a multi-well plate (24 wells). […] MTT (3-(4,5-dimethylthiazol-2-yl)-2,5-diphenyltetrazolium bromide and 300λ bromide-3-(4,5-dimethyl-2-thiazole)-2,5-diphenyltetrazolium) were added and 1 hour later, the supernatant was removed, DMSO was added and the resultant was shook. 200 λ/well of liquid was extracted and added into another multi-well plate (96 wells). ELISA was used to measure the absorbance value (OD570, optical density 570 nm) and calculate the cell cell viability. The experiment was repeated 3 times.
(§2) The MTT test was carried out to examine the effect of β-1 adrenergic receptor antagonists on epithelial cells.
(§3) The MTT test was carried out to examine the effect of first administering β-1 adrenergic receptor antagonist followed by EGFR-TKI on epithelial cells.
(§4) A MTT test was conducted to examine the effect of simultaneously administering a β-1 adrenergic receptor antagonist and an EGFR-TKI on epithelial cells. […] Referring to FIG. 4, FIG. 4 is a schematic diagram showing the c epithelial cell viability after simultaneously contacting an EGFR-TKI and a β-1 adrenergic receptor antagonist with normal epithelial cells.
(§5) The effects on HaCaT cells as well as A549 cancer cells was examined.

[1] = test system: A549 cancer cells (EGFR-mutated lung cancer cells); test: MTT test (cell viability) on A549 cancer cells; format: cell-based
Procedure: as §1
(§6) The effect of EGFR-TKI alone and the simultaneous administration of a β-1 adrenergic receptor antagonist and an EGFR-TKI on cancer cells was examined.
as §5

[2] = test system: HaCaT cells (human skin keratinocytes); test: in vitro
Procedure: as §1, §2, §3, §4, §5

[3] = test system: EGFR monoclonal antibody-induced papulopustular rash; conditions: 0.25% (w/w) topical, day 30 of treatment
Procedure: (§7) Patients with EGFR-TKI or anti-EGFR monoclonal antibodies induced epithelial cell damage, for example, rosacea or papulopustular rash, were recruited. A composition comprising β-1 adrenergic receptor antagonist was formulated for topical use, and was administered to recruited patients to observe its therapeutic effect.

EGFRI-induced rosacea = conditions: 0.25% (w/w) topical
Procedure: as §7

[4] = test system: PC9 cancer cell (EGFR-mutated cancer cell); conditions: afatinib and betaxolol administered simultaneously
Procedure: as §1, §6

SMILES: CN(C)C/C=C/C(=O)Nc1cc2c(Nc3ccc(F)c(Cl)c3)ncnc2cc1O[C@H]1CCOC1 [Afatinib, afatinib]
- viability at 24 h, 0.1 μM (in vitro): 90.6%
- viability at 24 h, 0.5 μM (in vitro): 89.8%
- viability at 24 h, 1 μM (in vitro): 87.2%
- viability at 24 h, 2.5 μM (in vitro): 64.1%
- viability at 24 h, 5 μM (in vitro): 34.8%
- viability at 1 µM ([1]; Homo sapiens, A549): 101%
- viability at 2.5 µM ([1]; Homo sapiens, A549): 100%
- viability at 5 µM ([1]; Homo sapiens, A549): 85.2%
- viability at 10 µM ([1]; Homo sapiens, A549): 73.4%
- viability at 20 µM ([1]; Homo sapiens, A549): 69.1%
- viability at 50 µM ([1]; Homo sapiens, A549): 26.4%

SMILES: CC(C)NCC(O)COc1ccc(CCOCC2CC2)cc1 (centres unmarked) [Betaxolol, betaxolol]
- HaCaT cell viability compared with afatinib only ([2]; betaxolol and afatinib added simultaneously, 24 hours): much improved
- effect on cell viability of normal epithelial cells (in words) ([2]; betaxolol only, up to 100 μM): basically does not affect the cell viability
- viability at 24 h, 10 μM (in vitro; Cell viability (%)): 92.8%
- viability at 24 h, 20 μM (in vitro; Cell viability (%)): 91.3%
- viability at 24 h, 40 μM (in vitro; Cell viability (%)): 91.4%
- viability at 24 h, 80 μM (in vitro; Cell viability (%)): 90.1%
- viability at 24 h, 100 μM (in vitro; Cell viability (%)): 88.1%
- viability at 24 h (in vitro; HaCaT cell viability, β-1 adrenergic receptor antagonist only): 100%
- improvement of papules and pustules of Cetuximab-induced papulopustular rash [3]: significantly improved
- improvement of osimertinib-induced rosacea (EGFRI-induced rosacea; 4th day of treatment): significantly improved
- improvement of rosacea (FIG. 12) (EGFRI-induced rosacea; 7th day of treatment): improved significantly
- improvement of afatinib-induced rosacea (EGFRI-induced rosacea; 14th day of treatment compared to the 1st day): significantly improved
- inhibitory effect and cytotoxicity on A549 compared with afatinib only ([1]; afatinib and betaxolol together): inhibitory effect was better and cytotoxicity is higher
- A549 cancer cell viability, betaxolol only ([1]; cells only in contact with betaxolol): 100%
- inhibitory effect and cytotoxicity on PC9 compared with afatinib only [4]: inhibitory effect is better and cytotoxicity is higher

SMILES: CC(C)(C)NC[C@H](O)COc1nsnc1N1CCOCC1 [timolol, Timolol]
- HaCaT cell viability compared with afatinib only ([2]; afatinib concentration fixed, timolol concentration adjusted): significantly decreased
- A549 cancer cell viability (change, in words) ([1]; timolol and afatinib simultaneously): did not change significantly
- A549 cancer cell viability (change, in words) ([1]; timolol increased to 50 μM, with afatinib): also increased

Reference: patent publication US20230248671A1, “USE OF BETA-1 ADRENERGIC RECEPTOR ANTAGONIST FOR PREPARING COMPOSITIONS FOR REDUCING EPITHELIAL CELL DAMAGE INDUCED BY EPIDERMAL GROWTH FACTOR RECEPTOR INHIBITORS AND INHIBITING CANCER CELLS” (CHANG GUNG MEMORIAL HOSPITAL, LINKOU, priority 2020, published 2023)
